# According to publication PMC6836411, “Identification and characterization of the Cucurbitacins, a novel class of small-molecule inhibitors of Tropomyosin receptor kinase a” (BMC Complementary and Alternative Medicine, 2019):
# Legend:
# Assay type in all cases: biochemical
# CAMK1 = CAMK1 (Homo sapiens, UniProt Q14012); assay: radiometric kinase panel, single dose […], duplicate; conditions: read-out: % remaining activity at 500 nM
# [1] = biological target: T1, Tropomyosin receptor kinase A (TrkA) (Homo sapiens, UniProt P04629); assay: radiometric [γ-33P]ATP kinase assay, poly(Glu,Tyr) substrate, dose-response
# T1 construct: gene NTRK1
# T1 sequence (P04629 441-796 limits assumed): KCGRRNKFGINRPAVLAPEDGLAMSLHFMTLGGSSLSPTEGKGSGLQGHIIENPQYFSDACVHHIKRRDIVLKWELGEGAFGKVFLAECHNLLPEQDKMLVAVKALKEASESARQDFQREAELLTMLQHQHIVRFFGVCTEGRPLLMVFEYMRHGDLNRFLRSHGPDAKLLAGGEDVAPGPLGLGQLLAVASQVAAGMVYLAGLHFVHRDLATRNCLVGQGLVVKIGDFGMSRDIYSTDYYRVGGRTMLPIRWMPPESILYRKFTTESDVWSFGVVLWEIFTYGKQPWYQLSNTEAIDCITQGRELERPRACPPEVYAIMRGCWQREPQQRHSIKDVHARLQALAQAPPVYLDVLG
# Aurora B = biological target: T2, Aurora B (Homo sapiens, UniProt Q96GD4); assay: radiometric kinase panel, single dose […], duplicate; conditions: read-out: % remaining activity at 500 nM
# T2 construct: gene AURKB
# T2 sequence (Q96GD4 whole entry): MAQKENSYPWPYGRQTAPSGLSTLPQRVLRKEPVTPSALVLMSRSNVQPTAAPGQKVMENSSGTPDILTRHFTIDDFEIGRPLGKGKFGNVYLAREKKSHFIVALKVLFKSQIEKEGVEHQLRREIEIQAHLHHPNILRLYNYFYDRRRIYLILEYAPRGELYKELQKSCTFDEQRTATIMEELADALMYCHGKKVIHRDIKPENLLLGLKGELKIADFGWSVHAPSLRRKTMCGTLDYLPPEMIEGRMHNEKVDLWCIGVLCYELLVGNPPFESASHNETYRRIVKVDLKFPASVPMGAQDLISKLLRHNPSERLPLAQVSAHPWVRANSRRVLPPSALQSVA
# Sequence of CAMK1 (Q14012 whole entry): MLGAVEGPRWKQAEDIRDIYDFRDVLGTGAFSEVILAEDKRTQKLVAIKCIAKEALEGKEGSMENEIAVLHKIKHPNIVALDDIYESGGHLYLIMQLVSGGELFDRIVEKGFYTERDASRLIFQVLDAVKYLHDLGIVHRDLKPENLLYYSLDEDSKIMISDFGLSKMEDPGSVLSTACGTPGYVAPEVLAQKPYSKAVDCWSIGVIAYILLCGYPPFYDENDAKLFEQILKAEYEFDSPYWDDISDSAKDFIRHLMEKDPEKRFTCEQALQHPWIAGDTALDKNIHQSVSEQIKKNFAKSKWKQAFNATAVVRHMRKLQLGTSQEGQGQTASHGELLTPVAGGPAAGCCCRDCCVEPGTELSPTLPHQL
SMILES,remaining activity at 0.5 µM (CAMK1) [%],IC50 [1] [nM],remaining activity at 0.5 µM (Aurora B) [%]
"CC(=O)OC(C)(C)/C=C/C(=O)[C@](C)(O)[C@H]1[C@H](O)C[C@@]2(C)[C@@H]3CC=C4[C@@H](C[C@H](O)C(=O)C4(C)C)[C@]3(C)C(=O)C[C@]12C [CuB, Cucurbitacin B]",12.9 ± 3.7,178,23.2 ± 2.8
"CC(=O)OC(C)(C)/C=C/C(=O)[C@](C)(O)[C@H]1[C@H](O)C[C@@]2(C)[C@@H]3CC=C4[C@@H](C=C(O)C(=O)C4(C)C)[C@]3(C)C(=O)C[C@]12C [CuE, Cucurbitacin E]",–,549,–
"CC(C)(O)/C=C/C(=O)[C@](C)(O)[C@H]1[C@H](O)C[C@@]2(C)[C@@H]3CC=C4[C@@H](C=C(O)C(=O)C4(C)C)[C@]3(C)C(=O)C[C@]12C [CuI, Cucurbitacin I]",–,959,–
